The text below walks through data of article PMC4559029 (Cancer Medicine, 2015).

The nature of data set [1]: published QT results for ondansetron. Conditions: 24 mg ondansetron, inferred by authors from published 32 mg data. Format: in vivo.
Procedure: The majority of patients (18/26) received ondansetron 24 mg IV.
On the set-up of data set [2]: method as in earlier work. Conditions: ondansetron 32 mg IV; cited from earlier work.
Data set [3] deals with patients. Conditions: early clinical development, across several studies; cited from earlier work.
Data set [4] is described as follows: clinical. Conditions: human, plasma, intravenous.
Data set [5] deals with hERG-related current. The conditions noted are these: at 10 μg/mL; ref data on file, Celgene Corporation; cited from earlier work.
Data set [6] has as its system patients with advanced malignancy. The experiment in a line: centrally read ECG analysis (QTcF, PR, QRS, heart rate) in patients with advanced malignancy. On the procedure: All patients provided written informed consent.
PK/PD modeling is not reported as it was not possible to account for the possible effects of coadministered antiemetics and the absence of closely collected ECGs during times of PK sampling when rapid changes in the plasma concentrations occurred. For the central tendency and categorical analyses, the mean of the three replicates was used. All paper ECGs were analyzed by a core central ECG laboratory (Duke Clinical Research Institute [DCRI], Durham, NC) in a fully blinded fashion. A DCRI technician marked the fiducial points on each ECG tracing and, using a digital caliper, measured the QT, PR, RR, and QRS intervals. All ECGs were over read by a DCRI cardiologist for verification of the interval measurements.

Some results are limits rather than exact numbers.

Take `Cc1nccn1CC1CCc2c(c3ccccc3n2C)C1=O` (stereo not shown) [ondansetron]: the “QTc effect at 4 h” value in data set [1] was < 5 ms. In data set [2], the “increase in QTc at 4 h” value is on record as “≈ 6 msec” and the “initial increase in QTc” value is “≈ 20 msec”.
What is called AUC(0-inf) is the area under the concentration-time curve extrapolated to infinity. Read a high AUC(0-inf) as high exposure. By Cmax is commonly meant the maximum level reached in the sampled fluid or tissue. The half-life is the time in which the quantity being followed falls by half. A low value points to rapid decline. For `C/C=C1\NC(=O)[C@H]2CSSCC/C=C/[C@H](CC(=O)N[C@H](C(C)C)C(=O)N2)OC(=O)[C@H](C(C)C)NC1=O` [romidepsin], the “patients with sudden death” value in data set [3] was “six”. In data set [4] (8 mg/m^2), this compound gave an AUC(0-inf) of 1350 ng·h/mL, a Cmax of 1110 ng/mL and a half-life of 4.82 h. In data set [4] (10 mg/m^2), this compound gave a Cmax of 1480 ng/mL and a half-life of 4.94 h. For the same compound, in data set [4] (12 mg/m^2), the AUC(0-inf) was 3010 ng·h/mL, the peak concentration (Cmax) came to 2090 ng/mL and the half-life was 4.32 h. In data set [4] (14 mg/m^2), the AUC(0-inf) came to 3070 ng·h/mL, the peak level (Cmax) was 780 ng/mL and the half-life was 3.7 h. The “inhibition of hERG-related current” value in data set [5] is on record as 37%. In addition, in data set [6] (14 mg/m^2 4-h infusion, at 0.25 h postinitiation), the “upper 90% CI of maximal mean QTcF increase from preantiemetic baseline” value amounted to 14.5 ms. Further, in data set [6] (human, in vivo), the “increase in heart rate” value is “≈ 20 bpm” and the “patients with absolute QTcF value >450 msec” value is reported as “No patient”.
